In patent publication US20230398211A1, “Liposomes Containing TLR4 Agonist, Preparation and Uses Thereof” (priority 2020, published 2023):
pEC50: −log10 of the molar value.

Key:
sheep red blood cells = test: Hemolysis assay; assay type: cell-based; details: 30 minutes at 37° C.
Experimental: Before use, red blood cells (Sheep red blood cells 10%, Rockland, ref R405-0050, lot BP30202 (stored+4° C.) were washed in cold PBS. Five mL of sheep red blood cells were transferred into a 15 mL Falcon tube and 7 mL of cold PBS were added. Cells were centrifuged for 10 min 700 g at 4° C. Supernatant was carefully removed and cell pellet was suspended in 12 mL of cold PBS. Then, cell suspension was centrifuged for 10 min, 700 g at 4° C. The cell suspension and centrifugation steps were repeated twice. Finally, cells were suspended in PBS in a final volume of 5 mL ready-to-use.
In a round bottom P96 plate, 100 μL per well of PBS were added. Then, 100 μL per well of saponin QS21 or QS7 solutions were added in serial 2-fold dilutions (1.6 μM to 200 μM-) in a citrate buffer (Citrate 10 mM, NaCl 140 mM, pH 6.3). […]
Twenty-five μL/well of 10% red blood cell solution were added, and the plates were incubated for 30 minutes at 37° C. and then were centrifuged for 5 min 700 g at room temperature. Eighty μL per well of surnageant were collected and transfered to a flat bottom plate for spectrophotometer reading (OD 540 nm). The percentage of cell hemolysis is calculated for each saponin concentration tested in μM according to the formula: 100×[(sample absorbance−negative control absorbance)[…](positive control absorbance−negative control absorbance)]. […]

[1] = Alcohol solubility of E6020 and MPL in ethanol by nephelometry
Experimental: The appearance and increase of opalescence, indicative of insolubility was followed by nephelometry.
RNU (Relative nephelometry Unit) of each solution was recorded and plotted on a graph.

Substance | pEC50 (sheep red blood cells; read-out: effective concentration inducing hemolysis of 50% red blood cells (EC50)) | erythrocyte hemolysis (sheep red blood cells; from 25 μM to 100 μM) | appearance of ethanol solution (opalescence) ([1]; 0.5, 1.0, 2.0 and 10 mg/ml in absolute ethanol, mixed 3h at room temperature) | solubility in ethanol ([1]; absolute ethanol, room temperature (about 25° C.), nephelometry)
QS21 | 5.38 | 100% | – | –
3-O-desacyl-4′-monophosphoryl lipid A [MPL] | – | – | opalescent even at the lowest concentration tested | very low solubility
